In patent US20030135033A1, “Compounds and methods for the identification and/ or validation of a target” (priority 2002, published 2003):

Legend:
[1] = test system: PTEN mRNA; test: Immunoblot of PTEN and phosphorylated Akt after GeneBloc transfection of HeLa cells; assay type: cell-based, human; conditions: 30 nM, 48 h
Description: More particularly, HeLa cells (380.000 cells/plate) and PC-3 cells (450.000 cells/plate) were transfected in parallel on 10 cm plates. Each cell line was treated for 48 h in duplicate samples with 30 nM of PTEN GeneBloc 53 or GBC. The cell extracts were analyzed by immunoblotting for the relative amounts of p110, PTEN and phosphorylated Akt (P*-Akt) as indicated on the right. The band which migrates just above the PTEN signal was caused by unspecific reaction of the secondary antibody.
More particularly, a schematic pathway with PTEN inhibiting PI-3K activity is shown which would normally phosphorylate Akt thus leading to proliferation, survival and migration of HeLa cells as a model system for PTEN +/+ cells. FIG. 9 B presents the Western immunoblot analysis of an experiment studying the influence of PTEN specific antisense oligonucleotide or a control antisense nucleotide designated as mismatch GeneBloc™. PTEN is only present in the control sample, but is absent when PTEN-specific antisense oligonucleotides are used. The successful knockdown of PTEN causes phosphorylation of Akt, indicative of induction of the signalling pathway. […] Growth on matrigel is used as a surrogate in vitro assay for metastatic or invasive cell growth. The cells treated with PTEN third generation antisense oligonucleotide (“PTEN GeneBloc™”) shown in FIG. 9C have a significant growth advantage over the control-treated cells.
Transfections were carried out in 96 well or 10-cm plates (at 30% to 50% confluency) by using various cationic lipids such as Oligofectamine, Lipofectamine (Life Technologies), NC388 (Ribozyme Pharmaceuticals, Inc., Boulder, CO), or FuGene 6 (Roche) according to the manufacturer's instructions. […]
Cells were washed twice with cold phosphate-buffered saline and lysed at 4° C. in lysis buffer containing 20 mM Tris (pH 7.5), 137 mM NaCl, 15% (vol/vol) glycerol, 1% (vol/vol) Nonidet P-40 (NP-40), 2 mM phenylmethylsulfonyl fluoride, […], 20 mM leupeptin, 2 mM benzamidine, 1 mM sodium vanadate, 25 mM […]-glycerol phosphate, 50 mM NaF and 10 mM NaPPi. Lysates were cleared by centrifugation at 14,000× g for 5 minutes and aliquots of the lysates were analyzed for protein expression by Western-blotting: Samples were separated by SDS-PAGE and transferred to nitrocellulose-filters (Schleicher & Schuell). […] Bound antibody was detected using anti-mouse- or anti-rabbit-conjugated horse radish peroxidase (Transduction Laboratories, BD) in TBST, washed, and developed using the SuperSignal West Dura (Pierce) or ECL (Amersham) chemoluminescence substrates.
The effect of GeneBloc induced transient knock down of PTEN expression was to be compared to the loss of PTEN function in human tumor cells. […] After 2 days the cell extracts were analyzed by Western-blotting. […]

[2] = test system: 3Y1 cells; test: UV-induced apoptosis in 3Y1 cells after GeneBloc treatment (cleaved caspase 3); assay type: cell-based, rat; conditions: 48 h GeneBloc treatment, UV irradiation
Source text: Activation of the P13K pathway interferes with caspase-mediated apoptosis through Akt-activation. Apoptotic stimuli may either be cytokines like TNF, or UV-irradiation. In the present example of which the results of a Western blot analysis are shown in FIG. 7B, UV-irradiation was used as to induce apoptosis. PTEN is an inhibitor of PI-3K action. […] Activated Akt blocks caspases-mediated apoptosis. Apoptosis was monitored by the presence of cleaved Caspase 3.
If knock down of PTEN expression mediated by third generation antisense molecules (GeneBlocs) results in a functional activation of PI 3-kinase signalling, then increased phosphorylation and activation of Akt should interfere with the effects of apoptotic stimuli. […] It was previously shown that rat embryo fibroblasts undergo apoptosis after UV irradiation and that this response can be inhibited by activation of the PI 3-kinase pathway, and specifically by activated Akt (Kulik, G., Klippel, A. and Weber, M. J. (1997). Antiapoptotic signalling by the insulin-like growth factor I receptor, phosphatidylinositol 3-kinase, and Akt. Mol Cell Biol 17, 1595-1606)). We exposed 3Y1 cells to UV light after 48 h GeneBloc treatment. 3 h after irradiation cell extracts were harvested and analyzed for the presence of cleaved caspase 3 which is indicative for apoptosis. […] Cells which were not exposed to UV light after transfection contained very little amounts of cleaved caspase 3.

[3] = test system: PTEN mRNA; test: PTEN knock down by RNAi versus antisense oligonucleotide (Western blot, dose response); assay type: cell-based, human
Description: The cells were infected using any of these two constructs according to the methods described herein above.
The result of this experiment is depicted in FIG. 18. […] As a positive control an antisense oligonucleotide specific for PTEN referred to as GeneBloc 53 (disclosed above) was also applied to the respective expression system at different concentrations (60 nM, 15 nM, 3.75 nM and 0.93 nM).
To further illustrate the impact of RNAi which is specific for PTEN, on the ratio of PTEN to p110 a dose response was generated which is shown in FIG. 19. From FIG. 19 it may be taken that even at the lowest concentration, i. e. 0.03 nM, the PTEN specific RNAi still reduces the ratio of PTEN to p 110 to about one third of the respective control. […] This is in clear contrast to RNAi which is not specific for PTEN.

“ucuccuuTTGTTTCTGcuaacga (UCUCCUUTTGTTTCTGCUAACGA; chemistry not fully specified) [PTEN 53, third generation antisense oligonucleotide (GeneBloc) against PTEN]” was tested, and the “PTEN (immunoblot)” value [1] was “degradation of PTEN mRNA”, the “phosphorylated Akt (P*-Akt) (immunoblot)” value [1] was “generation of phosphorylated Akt” and the “PTEN (immunoblot)” value ([1]; listed as PTEN GeneBloc 53) was “strong reduction in PTEN protein”. For the same substance, the “phosphorylated Akt (P*-Akt) (immunoblot)” value ([1]; listed as PTEN GeneBloc 53) was “substantial increase in Akt phosphorylation”, the “phosphorylated Akt” value [2] was “phosphorylated Akt is generated” and the “concentration required compared to RNAi” value ([3]; PTEN knockdown, Western blot) was “requires higher concentrations compared to RNAi”. The “PTEN expression (Western blot)” value ([3]; antisense oligonucleotide at 60 nM, 15 nM, 3.75 nM and 0.93 nM) was “allows for a specific knockdown of PTEN”.
